Data: patent US11363819B2 (priority 2017, dated 2022)
Where two headings read alike, the source gives them in different places.

Legend:
soybean [1] = settings: Magnesium chlorate 1600, Aciflurofen 96, combination 1600 + 96 gla/Ha
soybean [2] = settings: Magnesium chlorate 1600, Aciflurofen 96, combination 1600 + 96 gla/Ha; remark: listed apart in the source
Method: Field trials were carried out to test the synergy of the combination magnesium chlorate and glufosinate-ammonium which is a protoporphyrinogen oxidase-inhibiting herbicides for desiccation in Soybean. The field trials were carried out at various locations in Brazil during spring. The percentage efficacy was calculated after 1, 4 and 7 days of applications.

Triticum aesti = type: in vivo, wheat; settings: Magnesium chlorate 3000, Glufosinate ammonium 1500, combination 3000 + 1500 mL/Ha
Method: (§1) The expected efficacy of a combination of magnesium chlorate and co-herbicide was calculated using the well-established Colby method.
In the Colby method, the expected (or predicted) response of a combination of herbicides is calculated by taking the product of the observed response for each individual component of the combination when applied alone divided by 100 and subtracting this value from the sum of the observed response for each component when applied alone. An unexpected enhancement in efficacy of the combination is then determined by comparing the observed response of the combination to the expected (or predicted) response as calculated from the observed response of each individual component alone. If the observed response of the combination is greater than the expected (or predicted) response, or stated conversely, if the difference between the observed and expected response is greater than zero, then the combination is said to be synergistic or unexpectedly effective. […]
(§2) The present inventors have adopted the Coby method to calculate synergy of the combination of defoliants. The % defoliation of individual defoliants was calculated and compared to the expected and observed defoliation efficacy.
The defoliation activity of the individual defoliants of the invention and their combinations were evaluated on multiple crops including wheat, soybean and cotton. […]

Conyza Canadenesis = type: in vivo
Method: as §1
(§3) In the Colby method, the expected (or predicted) response of a combination of herbicides is calculated by taking the product of the observed response for each individual component of the combination when applied alone divided by 100 and subtracting this value from the sum of the observed response for each component when applied alone. An unexpected enhancement in efficacy of the combination is then determined by comparing the observed response of the combination to the expected (or predicted) response as calculated from the observed response of each individual component alone. If the observed response of the combination is greater than the expected (or predicted) response, or stated conversely, if the difference between the observed and expected response is greater than zero, then the combination is said to be synergistic or unexpectedly effective. (Colby, S. R., Weeds, 1967 (15), p. 20-22) The Colby method requires only a single dose of each herbicide applied alone and the mixture of both doses.
(§4) The defoliation activity of the individual defoliants of the invention and their combinations were evaluated on multiple crops including wheat, soybean and cotton. The trial was carried out in Randomized Complete Block (RCB) method, all field trials were conducted using this method. Each trial were replicated four times and conducted under GEP guidelines. Application volumes were varied for each mixture. Such field trials were carried out at various locations so as to generate independent data, the locations were chosen randomly across Brazil.
Field trials were carried out to test the synergy of the combination magnesium chlorate and glufosinate-ammonium which is a […] herbicides for controlling Conyza Canadenesis. The field trials were carried out at various locations in Brazil. The percentage efficacy was calculated after 3, 14 and 28 days of applications.

soybean [3] = type: in vivo; settings: Magnesium chlorate 2000, Glufosinate ammonium 300, combination 2000 + 300 gla/Ha
Method: as §1, §3, §2, §4
(§5) Field trials were carried out to test the synergy of the combination magnesium chlorate and glufosinate-ammonium which is a ESPS inhibitor herbicide for desiccation in Soybean. The field trials were carried out at various locations in Brazil during spring. The percentage efficacy was calculated after 1, 4 and 7 days of applications. The target crop for defoliation was soybean and the results are recorded in the table below: […]

soybean [4] = type: in vivo; settings: Magnesium chlorate 1600, Glufosinate ammonium 240, combination 1600 + 240 mL/Ha
Method: as §1, §3, §2, §4
as §5, with “1 and” for “1,”, “4” for “4 and 7”

[5] = Magnesium chlorate 1200, Aciflurofen 72, combination 1200 + 72 gla/Ha
[6] = Magnesium chlorate 1600, Aciflurofen 96, combination 1600 + 96 gla/Ha
[7] = Magnesium chlorate 2000, Aciflurofen 120, combination 2000 + 120 gla/Ha
[8] = Magnesium chlorate 1200, Glufosinate 180, combination 1200 + 180 gla/Ha
[9] = Magnesium chlorate 1600, Glufosinate 240, combination 1600 + 240 gla/Ha
[10] = Magnesium chlorate 2000, Glufosinate 300, WG formulation 1600 + 300 gla/Ha

Method for Cenchrus echinatus: Field trials were carried out to test the synergy of the combination magnesium chlorate and acifluorfen for controlling Cenchrus echinatus. The field trials were carried out at various locations in Brazil. The percentage efficacy was calculated after 3, 14 and 21 days of applications.
Method for Digitaria insularis: Field trials were carried out to test the synergy of the combination magnesium chlorate and acifluorfen for controlling Digitaria insularis. The field trials were carried out at various locations in Brazil. The percentage efficacy was calculated after 3, 14 and 28 days of applications.
Method for Euphorbia heterophylla: Field trials were carried out to test the synergy of the combination magnesium chlorate and acifluorfen for controlling Euphorbia heterophylla. The field trials were carried out at various locations in Brazil. The percentage efficacy was calculated after 3, 14 and 28 days of applications.

O=C(O)c1cc(Oc2ccc(C(F)(F)F)cc2Cl)ccc1[N+](=O)[O-] [Aciflurofen, acifluorfen]
desiccation in soybean at 3 DAA Actual (soybean [1]): 91.0% | desiccation in soybean at 14 DAA Actual (soybean [1]): 10% | % control at 3 DAA Actual (Cenchrus echinatus; [5]): 13% | % control at 3 DAA Actual (Cenchrus echinatus; [6]): 17.7% | % control at 3 DAA Actual (Cenchrus echinatus; [7]): 18.3% | % control at 14 DAA Actual (Cenchrus echinatus; [5]): 30% | % control at 14 DAA Actual (Cenchrus echinatus; [6]): 50% | % control at 14 DAA Actual (Cenchrus echinatus; [7]): 50% | % control at 21 DAA Actual (Cenchrus echinatus; [5]): 50% | % control at 21 DAA Actual (Cenchrus echinatus; [6]): 74.3% | % control at 21 DAA Actual (Cenchrus echinatus; [7]): 61.7% | % control at 3 DAA Actual (Digitaria insularis; [5]): 7.7% | % control at 3 DAA Actual (Digitaria insularis; [6]): 28.3% | % control at 3 DAA Actual (Digitaria insularis; [7]): 31.7% | % control at 14 DAA Actual (Digitaria insularis; [5]): 38.3% | % control at 14 DAA Actual (Digitaria insularis; [6]): 78.3% | % control at 14 DAA Actual (Digitaria insularis; [7]): 87% | % control at 28 DAA Actual (Digitaria insularis; [5]): 81.7% | % control at 28 DAA Actual (Digitaria insularis; [6]): 98.7% | % control at 28 DAA Actual (Digitaria insularis; [7]): 95.3% | desiccation in soybean at 1 DAA Actual (soybean [2]): 0% | desiccation in soybean at 4 DAA Actual (soybean [2]): 11.7% | % control at 3 DAA Actual (Euphorbia heterophylla; [5]): 45% | % control at 3 DAA Actual (Euphorbia heterophylla; [6]): 56.7% | % control at 3 DAA Actual (Euphorbia heterophylla; [7]): 63.3% | % control at 14 DAA Actual (Euphorbia heterophylla; [5]): 28.3% | % control at 14 DAA Actual (Euphorbia heterophylla; [6]): 35.0% | % control at 14 DAA Actual (Euphorbia heterophylla; [7]): 50% | % control at 28 DAA Actual (Euphorbia heterophylla; [5]): 13.3% | % control at 28 DAA Actual (Euphorbia heterophylla; [6]): 31.7% | % control at 28 DAA Actual (Euphorbia heterophylla; [7]): 33.3%

CP(=O)(O)CCC(N)C(=O)O (centres unmarked) [Glufosinate ammonium, glufosinate-ammonium]
Defoliation in Triticum aesti at 3 DAA Actual (Triticum aesti): 78% | % control at 3 DAA Actual (Conyza Canadenesis; [8]): 13.3% | % control at 3 DAA Actual (Conyza Canadenesis; [9]): 13.3% | % control at 3 DAA Actual (Conyza Canadenesis; [10]): 63.3% | % control at 14 DAA Actual (Conyza Canadenesis; [8]): 61.7% | % control at 14 DAA Actual (Conyza Canadenesis; [9]): 90.7% | % control at 14 DAA Actual (Conyza Canadenesis; [10]): 50% | % control at 28 DAA Actual (Conyza Canadenesis; [8]): 58.3% | % control at 28 DAA Actual (Conyza Canadenesis; [9]): 95% | % control at 28 DAA Actual (Conyza Canadenesis; [10]): 33.3% | desiccation in soybean at 1 DAA Actual (soybean [3]): 0% | desiccation in soybean at 4 DAA Actual (soybean [3]): 30% | desiccation in soybean at 7 DAA Actual (soybean [3]): 63.3% | desiccation in soybean at 1 DAA Actual (soybean [4]): 0% | desiccation in soybean at 4 DAA Actual (soybean [4]): 18.3%

[Mg+2].[O-][Cl+2]([O-])[O-].[O-][Cl+2]([O-])[O-] [Magnesium chlorate]
Defoliation in Triticum aesti at 3 DAA Actual (Triticum aesti): 68% | desiccation in soybean at 3 DAA Actual (soybean [1]): 84.3% | desiccation in soybean at 14 DAA Actual (soybean [1]): 60% | % control at 3 DAA Actual (Conyza Canadenesis; [8]): 50% | % control at 3 DAA Actual (Conyza Canadenesis; [9]): 55% | % control at 3 DAA Actual (Conyza Canadenesis; [10]): 40% | % control at 14 DAA Actual (Conyza Canadenesis; [8]): 51.7% | % control at 14 DAA Actual (Conyza Canadenesis; [9]): 47.7% | % control at 14 DAA Actual (Conyza Canadenesis; [10]): 33.3% | % control at 28 DAA Actual (Conyza Canadenesis; [8]): 30% | % control at 28 DAA Actual (Conyza Canadenesis; [9]): 35% | % control at 28 DAA Actual (Conyza Canadenesis; [10]): 11.7% | % control at 3 DAA Actual (Cenchrus echinatus; [5]): 10.7% | % control at 3 DAA Actual (Cenchrus echinatus; [6]): 11.3% | % control at 3 DAA Actual (Cenchrus echinatus; [7]): 14% | % control at 14 DAA Actual (Cenchrus echinatus; [5]): 14.3% | % control at 14 DAA Actual (Cenchrus echinatus; [6]): 23.3% | % control at 14 DAA Actual (Cenchrus echinatus; [7]): 30% | % control at 21 DAA Actual (Cenchrus echinatus; [5]): 10.7% | % control at 21 DAA Actual (Cenchrus echinatus; [6]): 12.3% | % control at 21 DAA Actual (Cenchrus echinatus; [7]): 22.7% | % control at 3 DAA Actual (Digitaria insularis; [5]): 6% | % control at 3 DAA Actual (Digitaria insularis; [6]): 6% | % control at 3 DAA Actual (Digitaria insularis; [7]): 7% | % control at 14 DAA Actual (Digitaria insularis; [5]): 9.3% | % control at 14 DAA Actual (Digitaria insularis; [6]): 11.7% | % control at 14 DAA Actual (Digitaria insularis; [7]): 16% | % control at 28 DAA Actual (Digitaria insularis; [5]): 41.7% | % control at 28 DAA Actual (Digitaria insularis; [6]): 48.3% | % control at 28 DAA Actual (Digitaria insularis; [7]): 31.7% | desiccation in soybean at 1 DAA Actual (soybean [3]): 30% | desiccation in soybean at 4 DAA Actual (soybean [3]): 56.7% | desiccation in soybean at 7 DAA Actual (soybean [3]): 58.3% | desiccation in soybean at 1 DAA Actual (soybean [4]): 21.7% | desiccation in soybean at 4 DAA Actual (soybean [4]): 53.3% | desiccation in soybean at 1 DAA Actual (soybean [2]): 21.7% | desiccation in soybean at 4 DAA Actual (soybean [2]): 53.3% | % control at 3 DAA Actual (Euphorbia heterophylla; [5]): 31.7% | % control at 3 DAA Actual (Euphorbia heterophylla; [6]): 33.3% | % control at 3 DAA Actual (Euphorbia heterophylla; [7]): 40% | % control at 14 DAA Actual (Euphorbia heterophylla; [5]): 40% | % control at 14 DAA Actual (Euphorbia heterophylla; [6]): 35% | % control at 14 DAA Actual (Euphorbia heterophylla; [7]): 33.3% | % control at 28 DAA Actual (Euphorbia heterophylla; [5]): 23.3% | % control at 28 DAA Actual (Euphorbia heterophylla; [6]): 16.7% | % control at 28 DAA Actual (Euphorbia heterophylla; [7]): 11.7%
